Data published in US6479509B1, “Method of promoting smoking cessation” (priority 2000, dated 2002).
Marks after values point to notes of the source that are not given here.

Legend:
[1] = test system: nicotine-induced antinociception; assay: Blockade of nicotine-induced antinociception, tail-flick test; type: in vivo, mice; settings: blocking antinociception of nicotine 2.5 mg/kg, mice, systemic administration
Method: Anitinociception. The tail-flick method of D'Amour and Smith (1941) as modified by Dewey et al. (1970) was used. A control response (2-4 s) was determined for each animal before treatment, and a test latency was determined after drug administration. To minimize tissue damage, a maximum latency of 10 s was imposed. Antinociceptive response was calculated as percent maximum possible effect (% MPE), where % MPE=[((test-control)/(10-control))×100], Groups of 8 to 12 animals were used for each dose and for each treatment. Mice were tested 5 min after nicotine administration for the dose-response evaluation. Antagonism studies were carried out by pretreating the mice s.c. with either saline or various drugs at different times before nicotine. The animals were tested 5 min after administration of nicotine.
(§1) Data were analyzed statistically by an analysis of variance followed by the Fisher's P least-significant difference multiple comparison test. The null hypothesis was rejected at the […].

[2] = test system: nicotine-induced hypothermia; assay: Blockade of nicotine-induced hypothermia (body temperature); type: in vivo, mice; settings: @ 32 μmol/hg
Method: Body Temperature. Rectal temperature was measured by a thermistor probe (inserted 24 mm) and digital thermometer (Yellow Springs Instrument Co., Yellow Springs, Ohio). Readings were taken just before and at 30 min after the s.c. injection of nicotine. For antagonism studies, mice were pretreated with either saline or various drugs 10 min before nicotine. The difference in rectal temperature before and after treatment was calculated for each mouse. The ambient temperature of the laboratory varied from 21 to 24° C. from day to day.
as §1

[3] = test system: nicotine-induced motor impairment; assay: Blockade of nicotine-induced motor impairment, rotarod test; type: in vivo, mice; settings: without nicotine
Method: Motor Coordination. To measure motor coordination, a wooden rod 6 cm in diameter was partitioned into three compartments by circular metal discs (28 cm in diameter) at 18-cm intervals. The rod was attached to a motor and rotated at a rate of 4 rpm. Naive mice were trained until they could remain on the rotarod for 3 min. […] This training took place no longer than 15 min before the s.c. administration of nicotine. Twenty minutes after the injection, mice were placed on the rotarod for 5 min. The amount of time the animals remained on the rotarod was recorded and percent impairment was calculated as % Impairment=[(]-(test time in s/300))×100]. An impairment value of 0% corresponds to the subjects that remained on the rotarod for 5 min (300 s), whereas 100% impairment corresponds to subjects, that fell off the rotarod immediately.
as §1

[4] = test system: nicotine-induced seizures; assay: Nicotine-induced seizure activity; type: in vivo, mice
Method: Seizure Activity. Following s.c. injection of nicotine at a dose of 9 mg/kg, each animal was placed in a 30 cm×30 cm Plexiglass cage and observed for 5 min. […] This amount of time was chosen because seizures occur very quickly after nicotine administration. Results are expressed as percentage seizure.

[5] = test system: discriminative stimulus effect of nicotine; assay: Nicotine drug discrimination; type: in vivo; settings: rats
Method: Rats were individually housed in a temperature-controlled environment and were maintained on a diet (Agway Rodent Chow) that restricted their body weight to approximately 85% of their free feeding weight. Water was available ad libitum in the home cages. A two-lever operant drug nation paradigm (VI 15) was carried out in eight operant chambers (4 Lafayette model 80001 and 4 BRS/LVIE model s 002). Reinforcement was a Bioserv 45-mg precision dustless pellet. Data were collected automatically by two Commodore 64 microcomputers.
Rats were placed in an operant chamber 5 min after injections. […] Animals were required to meet a criterion of three successive days of 80% or greater correct-lever responding before testing was initiated. Injections were given 5 min before placing the animal in the operant chamber. The schedule of injections, was determined using a Latin Square design. Dose-response curves were determined for nicotine 5 min after s.c. injections.

With `COC(=O)[C@H]1[C@@H](OC(=O)c2ccccc2)C[C@@H]2CC[C@H]1N2C` [Cocaine] the “AD50 Tail-Flick” value [1] was 3.2 μmol/hg, the “Hypothermia, % blockade @ dose” value [2] was 20% @ 32 and the “Performance on the rotarod test, by itself” value [3] was “did not significantly alter performance”. The “% Seizures (Mean)” value ([4]; cocaine 10 mg/kg pretreatment, nicotine 9 mg/kg) was 83.3%, the “% Seizures (Mean)” value ([4]; cocaine 20 mg/kg pretreatment, nicotine 9 mg/kg, P < .05 from saline/nicotine) was 50^c % and the “% Seizures (Mean)” value ([4]; cocaine 30 mg/kg pretreatment, nicotine 9 mg/kg, P < .05 from saline/nicotine) was 16^c %. The “AD50, antagonism of nicotine-induced seizures” value ([4]; mice, estimated) was 50 µmol/kg, the “% Seizures (Mean)” value ([4]; saline pretreatment, cocaine 20 mg/kg challenge) was 0% and the “Drug discrimination % Test (Mean ± SE)” value ([5]; cocaine 10 mg/kg pretreatment, nicotine 0.4 mg/kg) was 69 ± 8%. For the same compound, the “Drug discrimination % Test (Mean ± SE)” value ([5]; saline pretreatment, cocaine 10 mg/kg) was 17 ± 7%.
